The target in one assay is CYP2C19 (Homo sapiens, UniProt P33261). Nature of the assay: CYP2C19 inhibition (fluorescent substrate CEC). Type of assay: in vitro ADME. Particulars: read-out: Cyp IC50 2C19. A digest of the protocol:
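Test compounds, 10-point 1:1 serial dilutions in NADPH-regenerating cofactor mix, were preincubated 10 min at 37° C before recombinant enzyme and fluorogenic substrate reactions at 37° C (CYP1A2 15 min; CYP2C9 45 min; CYP2C19, 2D6 30 min). Product fluorescence was read at 409 ex with 460 em (1A2, 2C19) or 530 em (2C9, 2D6), and IC50 fitted from signal versus concentration.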

Assay [1] has as its system Osteoclast precursor cells. Kind of assay: Osteoclast differentiation assay (acid phosphatase readout). Type of assay: cell-based.

Sequence of CYP2C19 (P33261 whole entry): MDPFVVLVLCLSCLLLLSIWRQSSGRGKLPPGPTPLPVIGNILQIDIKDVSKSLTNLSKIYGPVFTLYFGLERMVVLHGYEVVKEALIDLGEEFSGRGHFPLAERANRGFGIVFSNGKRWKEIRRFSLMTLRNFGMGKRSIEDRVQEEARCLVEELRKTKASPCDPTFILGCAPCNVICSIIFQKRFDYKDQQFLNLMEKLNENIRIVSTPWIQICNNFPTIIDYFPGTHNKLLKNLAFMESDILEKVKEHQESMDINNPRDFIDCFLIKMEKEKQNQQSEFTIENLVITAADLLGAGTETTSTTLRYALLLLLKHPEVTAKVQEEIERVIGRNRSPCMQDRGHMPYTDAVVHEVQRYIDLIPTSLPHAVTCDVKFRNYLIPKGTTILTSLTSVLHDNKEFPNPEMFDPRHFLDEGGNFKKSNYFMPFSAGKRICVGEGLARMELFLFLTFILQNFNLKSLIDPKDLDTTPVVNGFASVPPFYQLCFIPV

As to `O=C(c1cnc(NC2CCC(F)(F)CC2)c(F)c1)c1c[nH]c2ncnc(NCC(F)(F)F)c12` [Compound P-4052, [6-[(4,4-difluorocyclohexyl)amino]-5-fluoro-3-pyridyl]-[4-(2,2,2-trifluoroethylamino)-7H-pyrrolo[2,3-d]pyrimidin-5-yl]methanone], the half-inhibitory concentration (IC50) (as a rule, the midpoint of a concentration-inhibition curve) at CYP2C19 is > 10 µM.
Still for that read-out and setting: the same measure for `CNc1ncnc2[nH]cc(C(=O)c3cnc(NC4CCC(F)(F)CC4)c(F)c3)c12` [Compound P-4054, [6-[(4,4-difluorocyclohexyl)amino]-5-fluoro-3-pyridyl]-[4-(methylamino)-7H-pyrrolo[2,3-d]pyrimidin-5-yl]methanone]: > 10 µM; for `Fc1nc(Nc2ccc(C3CC3)nc2)ccc1Cc1c[nH]c2ncnc(C3CC3)c12` [Compound P-4041, (6-Cyclopropyl-pyridin-3-yl)-[5-(4-cyclopropyl-7H-pyrrolo[2,3-d]pyrimidin-5-ylmethyl)-6-fluoro-pyridin-2-yl]-amine]: < 5 µM; for `CCNc1ncnc2[nH]cc(C(=O)c3cnc(NC4CCC(F)(F)CC4)c(F)c3)c12` [Compound P-4051, [6-[(4,4-difluorocyclohexyl)amino]-5-fluoro-3-pyridyl]-[4-(ethylamino)-7H-pyrrolo[2,3-d]pyrimidin-5-yl]methanone]: > 10 µM.
For `CCNc1ncnc2[nH]cc(C(=O)c3ccc(NC4CCC(F)(F)CC4)nc3Cl)c12` [Compound P-4050, [2-chloro-6-[(4,4-difluorocyclohexyl)amino]-3-pyridyl]-[4-(ethylamino)-7H-pyrrolo[2,3-d]pyrimidin-5-yl]methanone], the concentration for half-maximal inhibition (IC50) on CYP2C19 is > 10 µM.
As for `Nc1ncnc2[nH]cc(C(=O)c3ccc(Nc4ccc(C5CC5)nc4)nc3F)c12` [Compound P-4048, (4-amino-7H-pyrrolo[2,3-d]pyrimidin-5-yl)-[6-[(6-cyclopropyl-3-pyridyl)amino]-2-fluoro-3-pyridyl]methanone], the IC50 on CYP2C19 is > 10 µM.
Still for that read-out and setting: the same measure for `O=C(c1cnc(NC2CCC(F)(F)CC2)c(F)c1)c1c[nH]c2ncnc(NC3CC3)c12` [Compound P-4053, [4-(cyclopropylamino)-7H-pyrrolo[2,3-d]pyrimidin-5-yl]-[6-[(4,4-difluorocyclohexyl)amino]-5-fluoro-3-pyridyl]methanone]: > 10 µM; for `CC(C)=CNc1ncnc2[nH]cc(C(=O)c3ccc(NC4CCC(F)(F)CC4)nc3Cl)c12` [Compound P-4047, [2-chloro-6-[(4,4-difluorocyclohexyl)amino]-3-pyridyl]-[4-(2-methylprop-1-enylamino)-7H-pyrrolo[2,3-d]pyrimidin-5-yl]methanone]: > 10 µM; for `CC(C)(O)CNc1ncnc2[nH]cc(C(=O)c3ccc(Nc4ccc(C5CC5)nc4)nc3F)c12` [Compound P-4049, [6-[(6-cyclopropyl-3-pyridyl)amino]-2-fluoro-3-pyridyl]-[4-[(2-hydroxy-2-methyl-propyl)amino]-7H-pyrrolo[2,3-d]pyrimidin-5-yl]methanone]: 5 to 10 µM.
For the molecule `Cc1cnc2[nH]cc(Cc3ccc(NC4CCCCC4)nc3F)c2c1` [Compound P-3008, cyclohexyl-[6-fluoro-5-(5-methyl-1H-pyrrolo[2,3-b]pyridin-3-ylmethyl)-pyridin-2-yl]-amine], the IC50 in assay [1] was < 0.1 µM; at CYP2C19, < 5 µM.
